The source made the active and inactive calls.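 Rule for the calls: active = IC50 of 20 µM or lower; inactive = the rest.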

In the experiment the test system is HL-1 cardiomyocytes, H2O2 injury, ATP luminescence, 2 h. The experiment is described as follows: protection of HL-1 cardiomyocytes from peroxide injury, dose response, cell-based, ATP luminescence (AID 602215).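 Note: potency is for protection so actives raise ATP signal against peroxide damage.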
A word on the IC50: it is the concentration that gives 50% inhibition. For `COc1cc(-c2cc(C(=O)Nc3ccccc3N3CCOCC3)c3ccccc3n2)cc(OC)c1OC`, the IC50 was 4.24 µM.

For `CCOc1cc(-c2cc(-c3ccc(N)cc3)nc(N)c2C#N)ccc1O`, the IC50 is > 79 µM (inactive).

Consider `CCOc1cc(/C=C/c2ccc3cccc([N+](=O)[O-])c3n2)ccc1OCC(=O)N(C)C`, for which the IC50 was > 79 µM (inactive).

In the case of `COc1ccc(-c2cc(NC=O)c3ncc(-c4ccc(C(C)=O)cc4)n3c2)cn1`, the IC50 is > 79 µM (inactive).

With `CC(C)(C)NC(=O)COC(=O)c1c2c(nc3ccccc13)CCC2`, the IC50 is 49.1 µM (inactive).

On to `COc1ccc(-n2c(/C=C/c3ccc(O)c(OC)c3)nc3ccccc3c2=O)cc1`, for which the concentration for half-maximal inhibition (IC50) was 12.1 µM.

As for `CC(C)=NNc1cnnc2ccc([N+](=O)[O-])cc12`, the IC50 was > 79 µM (inactive).

Take `COc1cc(CN2C[C@@H](CO)O[C@@H](n3cnc4c(Nc5ccccc5)ncnc43)C2)cc(OC)c1OC`: the IC50 was 20.5 µM (inactive).

For `COc1ccc2c(c1OC)C(=O)N1c3ccccc3C(=O)N(c3ccccc3)C21` (stereo not given), the IC50 is > 79 µM (inactive).

As for `COc1cccc(/C=N/NC(=O)c2oc3nc(-c4ccccc4)cc(-c4ccco4)c3c2N)c1`, the IC50 is > 79 µM (inactive).

Turning to `COc1ccc(C(=O)O/N=C(/c2ccccc2)c2ccncc2)cc1OC`, the IC50 is > 79 µM (inactive).

In the case of `CCOc1cc(/C=C(\C#N)C(=O)Nc2ccc(S(N)(=O)=O)cc2)ccc1OCCN1CCOCC1`, the IC50 was > 79 µM (inactive).

`NC(=O)c1nsc(C(=O)N(c2ccccc2F)C(C(=O)NCc2ccc(F)cc2)c2ccc(O)cc2)c1N` (stereo not given): the IC50 was > 79 µM (inactive).

Take `Cc1ccccc1N(C(=O)c1snc(C(N)=O)c1N)C(C(=O)NCc1ccccc1)c1ccc(O)cc1` (stereo not given): the half-maximal inhibitory concentration (IC50) is 15.9 µM.

As to `c1ccc(-c2nc(-n3ccnc3)nc(-n3ccnc3)n2)cc1`, the IC50 was > 79 µM (inactive).

Turning to `COc1cccc(C(=O)Nc2c(C(N)=O)oc3ccccc23)c1`, the IC50 was 27.6 µM (inactive).

As to `CC(=O)c1ccc(-c2cnc3c(NC=O)cc(-c4cccc(C(=O)N(C)C)c4)cn23)cc1`, the IC50 was 12 µM.

As for `CC(=O)c1cccc(-c2cnc3c(NC=O)cc(-c4ccccc4F)cn23)c1`, the IC50 is 3.28 µM.

Turning to `O=[N+]([O-])c1ccc(Nc2nc(N/N=C/c3cccc(F)c3)nc(N3CCCC3)n2)cc1`, the IC50 was > 79 µM (inactive).

In the case of `CC1(c2ccccc2)NC(=O)N(CC(=O)Nc2cccc(/C=C/c3ccccn3)c2)C1=O` (stereo not given), the half-maximal inhibitory concentration (IC50) was 14 µM.

As to `COC(=O)c1[nH]c2ccccc2c1NC(=O)CNC1CCCCC1`, the IC50 was > 79 µM (inactive).

Consider `COc1ccc(-c2ccc3c(c2)S(=O)(=O)c2cccc(C(=O)NC[C@@H]4CCCO4)c2C3=O)cc1OC`, for which the IC50 was > 79 µM (inactive).

For `COc1cc(C(=O)Nc2nc(-c3cccs3)cs2)cc(OC)c1OC`, the IC50 was > 79 µM (inactive).

With `COCCCN(Cc1ccco1)C(=O)Cn1ncc2c([nH]c3ccccc32)c1=O`, the IC50 was > 79 µM (inactive).

In the case of `CC(C)(C)OC(=O)CNC(=O)c1[nH]cnc1C(=O)NCC(=O)OCc1ccccc1`, the IC50 was 28.2 µM (inactive).

For the compound `CCCn1nc(C(=O)Nc2nc(-c3ccccn3)cs2)c2ccccc2c1=O`, the IC50 was 7.02 µM.

As to `COc1ccc(C(=O)Nc2cccc(/C(C)=N/NC(=O)c3ccc([N+](=O)[O-])c(C)c3)c2)cc1OC`, the IC50 was > 79 µM (inactive).

For `Cn1c(=O)c2[nH]c(NN=Cc3cccc(Br)c3)nc2n(C)c1=O`, the IC50 is > 79 µM (inactive).

Turning to `COc1cc(-c2cc(NC(C)=O)c3ncc(-c4cc(OC)c(OC)c(OC)c4)n3c2)cc(OC)c1OC`, the IC50 is 1.48 µM.

With `Cc1cc(C)c2c(N)c(C(=O)N/N=C/c3cccnc3)sc2n1`, the IC50 is > 79 µM (inactive).

As to `Cc1ccc(C)c(NC(=O)C(Sc2nc3ccccc3c(=O)n2CC(C)C)c2ccccc2)c1` (stereo not given), the IC50 is > 79 µM (inactive).

On to `CC(C)(C)NC(=O)c1cc(NC(=O)c2cccs2)cc(NC(=O)c2cccs2)c1`, for which the IC50 was > 79 µM (inactive).

In the case of `CCOc1ccc2nc(NC(=O)CN3CCC(n4nnc5cc(F)ccc54)CC3)sc2c1`, the IC50 is > 79 µM (inactive).

As to `Cc1cc(C)c(C)c(S(=O)(=O)N2CCN(C(=O)c3cc(=O)[nH]c4ccccc34)CC2)c1C`, the IC50 was 18.9 µM.

Regarding `CCN(CC(=O)Nc1ccc(OC)cc1)C(=O)c1cc(-c2cccs2)nn1-c1ccccc1`, the IC50 was > 79 µM (inactive).

As for `O=C(N/N=C/c1ccccn1)c1cc(-c2cccc3ccccc23)n[nH]1`, the IC50 was > 79 µM (inactive).

Take `Cc1[nH]c2ccccc2c1/C=N/NC(=O)c1cc(-c2cccs2)[nH]n1`: the IC50 was > 79 µM (inactive).

Consider `COc1cccc(-c2cnc3c(NC=O)cc(-c4cc(OC)c(OC)c(OC)c4)cn23)c1`, for which the IC50 is > 79 µM (inactive).

For `CNC(=O)c1ccc(-c2sc3nc(N4CCOCC4)c4c(c3c2N)CC(C)(C)OC4)o1`, the IC50 is 1.84 µM.

Take `COc1cc(C(=O)NCC(=O)N/N=C/c2ccc(-c3cccc([N+](=O)[O-])c3)o2)cc(OC)c1OC`: the half-maximal inhibitory concentration (IC50) is 9.15 µM.

`O=C(CCCN1C(=O)c2cccc3cccc(c23)C1=O)N1CCN(c2ccccc2O)CC1`: the concentration for half-maximal inhibition (IC50) was 7.51 µM.

For `CCN1C(=O)/C(=C/c2nc3ccccc3c(=O)[nH]2)c2ccccc21`, the IC50 was 5.41 µM.

For `COc1ccc(-c2cc(C(=O)N(C)Cc3nc4ccccc4c(=O)[nH]3)c3ccccc3n2)cc1OC`, the IC50 was 21.3 µM (inactive).

On to `COc1ccccc1OP(=O)(Nc1cccnc1)Oc1ccccc1OC`, for which the IC50 is > 79 µM (inactive).

For `Cc1cccc(NC(=O)c2oc3ccc(S(=O)(=O)N4CCOCC4)cc3c2C)c1C`, the IC50 was 4.13 µM.

Turning to `CC(=O)Nc1cc(-c2ccc(C(=O)NC3CC3)cc2)cn2c(-c3cccc(C(C)=O)c3)cnc12`, the IC50 is > 79 µM (inactive).

As to `NC(=O)c1nsc(C(=O)N(Cc2ccco2)C(C(=O)NCc2ccccc2)c2ccc(O)cc2)c1N` (stereo not given), the IC50 is 45.3 µM (inactive).

Take `CN(C)S(=O)(=O)c1ccc2[nH]cc(/C=C/c3nc4ccccc4c(=O)n3-c3ccccc3)c2c1`: the IC50 was > 79 µM (inactive).

On to `COc1ccc(/C=N/NC(=O)c2ccc(COc3cccc4cccnc34)cc2)cc1OC`, for which the 50% inhibitory concentration (IC50) was 6.02 µM.

For the compound `COc1ccc(-c2cnc3c(NC=O)cc(-c4cccc(NS(C)(=O)=O)c4)cn23)cc1OC`, the half-inhibitory concentration (IC50) is 6.15 µM.

With `NC(=O)COc1ccc2oc(=O)cc(-c3cc4ccccc4o3)c2c1`, the IC50 is 18.3 µM.

On to `NC(=O)c1cc2ccccc2o/c1=N\NC(=O)c1ccc(F)cc1`, for which the IC50 was 3.33 µM.

For the compound `O=C(NCC(=O)N(Cc1ccccc1)C(C(=O)NC1CCCCC1)c1ccco1)c1ccco1` (stereo not given), the IC50 is > 79 µM (inactive).

For `Cc1ccc(C=NNc2nc3c([nH]2)c(=O)n(C)c(=O)n3C)cc1`, the IC50 was > 79 µM (inactive).

`CN(C(=O)c1sc2nc(N3CCOCC3)c3c(c2c1N)CCCC3)c1ccccc1`: the concentration for half-maximal inhibition (IC50) was 8.63 µM.

With `O=C(CN1CCN(c2ccccn2)CC1)Nc1ccc([N+](=O)[O-])cc1C(=O)Nc1ccccc1F`, the IC50 is > 79 µM (inactive).

In the case of `CC(=O)Nc1ccc(S(=O)(=O)N(Cc2cccnc2)Cc2cc3ccccc3[nH]c2=O)cc1`, the IC50 was 11.7 µM.

Turning to `COC(=O)c1cc2ccccn2c2c(C(=O)OC)c(C(=O)OC)cc1-2`, the IC50 is > 79 µM (inactive).

Consider `COc1ccccc1NC(=O)c1cc(-c2ccc(OC)c(OC)c2)nc2ccccc12`, for which the IC50 is > 79 µM (inactive).

As to `CCOc1ccccc1NC(=O)c1oc2ccccc2c1NC(=O)C1CCCO1` (stereo not given), the IC50 is > 79 µM (inactive).

Consider `COC(=O)c1ccc(N)c(N=CC2=C(O)CC(C)(C)CC2=O)c1`, for which the IC50 was 41.4 µM (inactive).

Take `CC(C)(C)OC(=O)N1CCC(NC(=O)c2nc[nH]c2C(=O)NCC(=O)OCc2ccccc2)CC1`: the IC50 was > 79 µM (inactive).

In the case of `CCOC(=O)c1ccc(NC(=O)c2nc[nH]c2C(=O)NCCCCCNC(=O)OC(C)(C)C)cc1`, the IC50 is > 79 µM (inactive).

With `CC1Nc2ncnc(N3CCN(c4ccccc4)CC3)c2N(Cc2ccc(Cl)cc2)C1=O` (stereo not given), the IC50 was > 79 µM (inactive).

Regarding `CC(=O)Nc1cc(-c2cccc(NS(C)(=O)=O)c2)cn2c(-c3cccc(C(C)=O)c3)cnc12`, the 50% inhibitory concentration (IC50) is 11.4 µM.

With `CCn1nc(C(=O)Nc2nc(-c3ccccn3)cs2)c2ccccc2c1=O`, the IC50 was 33 µM (inactive).

With `C[C@H](NC(=O)c1nc[nH]c1C(=O)NCC(=O)OCc1ccccc1)c1ccccc1`, the IC50 is > 79 µM (inactive).

Take `CC(=O)c1ccc(-c2cnc3c(NC=O)cc(-c4cccc(NS(C)(=O)=O)c4)cn23)cc1`: the half-maximal inhibitory concentration (IC50) is 12.9 µM.

As to `COc1cc(-c2cc3nc(NCCOc4ccccc4)ccn3n2)cc(OC)c1OC`, the IC50 was > 79 µM (inactive).

For `O=S(=O)(c1ccccc1)N1CCN(c2nc(-c3cccnc3)nc3ccccc23)CC1`, the IC50 was > 79 µM (inactive).

Turning to `COc1cc(-c2cc3nc(NCCc4ccc(S(N)(=O)=O)cc4)ccn3n2)cc(OC)c1OC`, the IC50 is 15.1 µM.

Regarding `COc1ccc(N(CC(=O)Nc2cccc(C(C)=O)c2)S(=O)(=O)c2ccc(NC(C)=O)cc2)cc1`, the IC50 was > 79 µM (inactive).

On to `COc1cc(NC(=O)c2ccco2)c(OC)cc1NC(=O)c1cc(OC)c(OC)c(OC)c1`, for which the IC50 is 21 µM (inactive).

With `COc1cc(/C=C(\C#N)c2nc3ccc(C)cc3[nH]2)c([N+](=O)[O-])cc1OC`, the IC50 is > 79 µM (inactive).

For the compound `CC(=O)Nc1cccc(-c2cc(NC=O)c3ncc(-c4ccc(C(C)=O)cc4)n3c2)c1`, the IC50 is 6.11 µM.

With `COc1ccc(-c2cc(-c3nnc(COC(=O)C4CC4C)o3)c3ccccc3n2)cc1OC` (stereo not given), the IC50 is 3.49 µM.

In the case of `CC12C=CC(=O)CC1CCC1C2CCC2(C)C(O)C(O)CC12` (stereo not given), the IC50 is > 79 µM (inactive).

Turning to `C=CC[C@@H](CC(=O)NCCO)C(=O)NC[C@H](OC(=O)[C@@H](CC=C)Cc1ccc(F)cc1)c1ccccc1`, the IC50 is > 79 µM (inactive).

For the compound `CS(=O)(=O)c1ccc(-c2cnc3c(NC=O)cc(-c4ccsc4)cn23)cc1`, the concentration for half-maximal inhibition (IC50) was 8.73 µM.

Consider `O=C(COC(=O)c1ccccc1C(=O)OCC(=O)NCCc1c[nH]c2ccccc12)NCCc1c[nH]c2ccccc12`, for which the IC50 was > 79 µM (inactive).

The values above are taken from PubChem BioAssay AID602215 (Sanford-Burnham Center for Chemical Genomics, 2012).
